Experimental data published in patent US11111245B2, “Derivatives of N-cycloalkyl/heterocycloalkyl-4-(imidazo[1,2-a]pyridine)pyrimidin-2-amine as therapeutic agents” (Aucentra Therapeutics Pty Ltd, priority 2017, dated 2021).

What was measured:
CDK6/D3 = CDK6/D3 (Homo sapiens, UniProt Q00534); assay: ADP Glo Kinase assay CDK6/D3; assay type: biochemical; conditions: CDK6D3; for remaining activity at 10 µM: compound at 10 μM, read-out: residual activity (%) at 10 μM CDK6D3; for Ki: read-out: CDK inhibition, Ki (μM) CDK6D3
CDK6/D3, sequence (Q00534 whole entry): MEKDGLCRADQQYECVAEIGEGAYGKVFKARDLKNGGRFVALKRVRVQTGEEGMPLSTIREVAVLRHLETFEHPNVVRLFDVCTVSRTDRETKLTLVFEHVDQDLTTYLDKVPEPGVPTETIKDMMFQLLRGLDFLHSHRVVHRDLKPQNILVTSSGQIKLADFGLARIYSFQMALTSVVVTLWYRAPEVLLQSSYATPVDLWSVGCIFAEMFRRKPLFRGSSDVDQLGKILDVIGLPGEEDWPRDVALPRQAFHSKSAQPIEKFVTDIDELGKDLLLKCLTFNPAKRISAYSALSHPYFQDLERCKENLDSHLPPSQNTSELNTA
CDK6/D3, sequence (P30281 whole entry partner): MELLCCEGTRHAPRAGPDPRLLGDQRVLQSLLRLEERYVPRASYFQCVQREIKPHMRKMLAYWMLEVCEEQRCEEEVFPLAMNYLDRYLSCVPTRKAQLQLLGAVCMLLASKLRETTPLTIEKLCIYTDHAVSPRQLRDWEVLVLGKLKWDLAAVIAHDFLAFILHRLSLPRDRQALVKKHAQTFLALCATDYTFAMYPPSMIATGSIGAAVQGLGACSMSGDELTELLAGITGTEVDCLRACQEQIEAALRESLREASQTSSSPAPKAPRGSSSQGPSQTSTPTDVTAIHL
Method: Eurofins Pharma Discovery or Reaction Biology Corporation Kinase Profiler services were used to measure inhibition of CDKs and other kinases by radiometric assay. Inhibition of CDK4/D1, CDK6/D3 and CDK9/T1 were also determined in-house using ADP Glo Kinase assays (Promega Corporation, Madison, USA). Briefly, the kinase reaction for CDK4/D1 and CDK6/D3 was performed with kinase reaction buffer ([…] Tris base pH 7.5, 20 mM MgCl2, 0.4 mM DTT), 0.1 mg/ml BSA and RB-CTF substrate (retinoblastoma protein 1 C-terminal fraction). For CDK9/CyclinT1, the kinase reaction was performed with standard assay buffer and Kinase Dilution Buffer and RBER-IRStide substrate. Serial dilutions of 1:3 were prepared for test compounds for 10 concentrations (from 10 μM to 0.5 nM). The kinase reactions were started by addition of ATP, incubated for 40 min at 37° C. and then stopped by adding 10 μL of ADP Glo reagent. After incubation at room temperature in the dark for 40 min, 20 μL of kinase detection reagent was added per well and incubated for 40 min. Luminescence was measured using an EnVision Multilabel plate reader (PerkinElmer, Buckinghamshire, UK). Positive and negative controls were performed in the presence and absence of CDK kinases, respectively. Half-maximal inhibition (IC50) values were calculated using a 4-parameter logistic non-linear regression model with Graphpad prism (Version 6.0). Apparent inhibition constants (Ki) values were calculated from Km (ATP) and IC50 values for the respective kinases.

CDKs and other kinases [1] = target: T1, CDKs and other kinases (Homo sapiens, UniProt P06493); assay: Radiometric kinase assay (Eurofins Pharma Discovery or Reaction Biology Corporation Kinase Profiler); assay type: biochemical; conditions: CDK1B; for remaining activity at 10 µM: compound at 10 μM, read-out: residual activity (%) at 10 μM CDK1B; for Ki: read-out: CDK inhibition, Ki (μM) CDK1B
T1 construct: other: CDK1B; residual activity (%) at 10 μM CDK1B; compound at 10 μM
T1 sequence (P06493 whole entry): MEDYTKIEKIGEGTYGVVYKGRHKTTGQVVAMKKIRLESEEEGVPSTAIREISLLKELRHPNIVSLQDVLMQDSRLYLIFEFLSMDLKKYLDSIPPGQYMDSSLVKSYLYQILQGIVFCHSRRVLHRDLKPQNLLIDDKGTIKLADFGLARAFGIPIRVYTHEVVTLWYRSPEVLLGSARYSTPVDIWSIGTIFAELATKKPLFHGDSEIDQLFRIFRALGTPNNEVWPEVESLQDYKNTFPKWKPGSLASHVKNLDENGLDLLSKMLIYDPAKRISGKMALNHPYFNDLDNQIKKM
How it was run: (§1)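 Other CDKs and further kinases were profiled externally by radiometric assay. In-house ADP Glo assays covered CDK4/D1 and CDK6/D3 (RB-CTF substrate, pH 7.5 Tris buffer with MgCl2, DTT, BSA) and CDK9/T1 (RBER-IRStide substrate), 40 min at 37° C.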

CDKs and other kinases [2] = target: T2, CDKs and other kinases (Homo sapiens, UniProt P50613); assay: as above; assay type: biochemical; conditions: CDK7H; for remaining activity at 10 µM: compound at 10 μM, read-out: residual activity (%) at 10 μM CDK7H; for Ki: read-out: CDK inhibition, Ki (μM) CDK7H
T2 construct: other: CDK7H; residual activity (%) at 10 μM CDK7H; compound at 10 μM
T2 sequence (P50613 whole entry): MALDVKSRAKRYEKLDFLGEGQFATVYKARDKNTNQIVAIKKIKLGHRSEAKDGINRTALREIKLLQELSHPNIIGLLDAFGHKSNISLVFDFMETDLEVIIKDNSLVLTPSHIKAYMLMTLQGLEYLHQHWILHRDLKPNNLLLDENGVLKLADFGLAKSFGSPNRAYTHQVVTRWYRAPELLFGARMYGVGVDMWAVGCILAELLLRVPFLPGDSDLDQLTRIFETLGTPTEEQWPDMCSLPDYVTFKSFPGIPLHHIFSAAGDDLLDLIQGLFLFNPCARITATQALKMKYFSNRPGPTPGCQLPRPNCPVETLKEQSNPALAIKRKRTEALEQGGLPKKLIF
How it was run: as §1

CDKs and other kinases [3] = target: T3, CDKs and other kinases (Homo sapiens, UniProt P24941); assay: as above; assay type: biochemical; conditions: CDK2A; for remaining activity at 10 µM: compound at 10 μM, read-out: residual activity (%) at 10 μM CDK2A; for Ki: read-out: CDK inhibition, Ki (μM) CDK2A
T3 construct: other: CDK2A; residual activity (%) at 10 μM CDK2A; compound at 10 μM
How it was run: as §1

CDK4/D1 = CDK4/D1 (Homo sapiens, UniProt P11802); assay: ADP Glo Kinase assay CDK4/D1; assay type: biochemical; conditions: CDK4D1; for remaining activity at 10 µM: compound at 10 μM, read-out: residual activity (%) at 10 μM CDK4D1; for Ki: read-out: CDK inhibition, Ki (μM) CDK4D1
CDK4/D1, sequence (P11802 whole entry): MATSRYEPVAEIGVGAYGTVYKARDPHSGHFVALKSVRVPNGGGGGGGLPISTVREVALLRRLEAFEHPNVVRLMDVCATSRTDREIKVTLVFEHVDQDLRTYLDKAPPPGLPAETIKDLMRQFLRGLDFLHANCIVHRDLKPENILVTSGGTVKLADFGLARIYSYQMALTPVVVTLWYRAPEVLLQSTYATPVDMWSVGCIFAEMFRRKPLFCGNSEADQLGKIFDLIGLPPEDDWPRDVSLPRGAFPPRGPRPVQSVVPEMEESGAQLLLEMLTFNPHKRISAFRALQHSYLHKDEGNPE
CDK4/D1, sequence (P24385 whole entry partner): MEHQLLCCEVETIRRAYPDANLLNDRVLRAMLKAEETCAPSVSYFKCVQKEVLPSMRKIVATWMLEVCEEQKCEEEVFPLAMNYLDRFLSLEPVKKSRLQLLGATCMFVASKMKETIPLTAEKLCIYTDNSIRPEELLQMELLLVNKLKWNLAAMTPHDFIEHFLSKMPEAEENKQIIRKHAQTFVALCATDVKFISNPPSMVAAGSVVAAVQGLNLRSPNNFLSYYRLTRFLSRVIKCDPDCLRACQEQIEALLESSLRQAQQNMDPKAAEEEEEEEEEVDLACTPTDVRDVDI
How it was run: as §1

CDK9/T1 = CDK9/T1 (Homo sapiens, UniProt P50750); assay: ADP Glo Kinase assay CDK9/T1; assay type: biochemical; conditions: CDK9T1; read-out: CDK inhibition, Ki (μM) CDK9T1
CDK9/T1, sequence (P50750 whole entry): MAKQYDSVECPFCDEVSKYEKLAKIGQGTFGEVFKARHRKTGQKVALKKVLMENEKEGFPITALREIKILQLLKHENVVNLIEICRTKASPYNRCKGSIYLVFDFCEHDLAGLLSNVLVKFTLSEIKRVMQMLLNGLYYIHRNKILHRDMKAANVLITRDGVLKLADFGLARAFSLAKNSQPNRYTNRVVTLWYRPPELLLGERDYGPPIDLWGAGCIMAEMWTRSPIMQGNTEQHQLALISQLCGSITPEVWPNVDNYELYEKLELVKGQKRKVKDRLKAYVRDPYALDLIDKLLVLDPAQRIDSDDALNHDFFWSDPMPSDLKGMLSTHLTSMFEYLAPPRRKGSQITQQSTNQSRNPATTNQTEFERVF
CDK9/T1, sequence (O60563 whole entry partner): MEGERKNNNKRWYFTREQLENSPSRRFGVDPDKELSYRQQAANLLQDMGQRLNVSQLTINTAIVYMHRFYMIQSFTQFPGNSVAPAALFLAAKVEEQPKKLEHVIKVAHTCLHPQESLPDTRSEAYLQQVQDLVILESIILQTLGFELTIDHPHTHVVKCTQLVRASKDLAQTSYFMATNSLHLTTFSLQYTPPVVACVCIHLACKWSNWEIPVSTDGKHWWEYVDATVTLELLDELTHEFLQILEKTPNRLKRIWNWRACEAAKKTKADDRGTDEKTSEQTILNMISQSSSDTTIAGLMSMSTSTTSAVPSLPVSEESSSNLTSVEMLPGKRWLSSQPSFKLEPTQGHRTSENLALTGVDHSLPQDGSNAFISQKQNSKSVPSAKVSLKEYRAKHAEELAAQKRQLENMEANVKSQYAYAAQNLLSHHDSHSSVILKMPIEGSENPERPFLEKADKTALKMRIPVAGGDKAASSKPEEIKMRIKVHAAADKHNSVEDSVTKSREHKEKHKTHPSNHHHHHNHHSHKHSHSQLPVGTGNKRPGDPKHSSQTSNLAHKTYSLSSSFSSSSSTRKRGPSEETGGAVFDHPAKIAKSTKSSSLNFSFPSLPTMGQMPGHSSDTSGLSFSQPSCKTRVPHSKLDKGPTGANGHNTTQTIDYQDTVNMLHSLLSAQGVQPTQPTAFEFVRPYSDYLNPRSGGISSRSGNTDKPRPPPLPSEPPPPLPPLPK
How it was run: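 CDK4/D1 and CDK6/D3 were run in […] Tris pH 7.5, 20 mM MgCl2, 0.4 mM DTT, 0.1 mg/ml BSA with RB-CTF substrate; CDK9/T1 used RBER-IRStide. ATP-started reactions ran 40 min at 37° C, with ADP Glo luminescence read-out. IC50 came from 4-parameter fits; Ki from Km (ATP) and IC50.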

leukemia cell lines = assay: Resazurin cell viability assay on leukemia cell lines (72 h growth inhibition, GI50); assay type: cell-based; conditions: Homo sapiens, MV4-11 cells
Method: Compounds from Example 1 were subjected to a standard MTT (3-(4,5-dimethylthiazol-2-yl)-2,5-diphenyltetrazolium bromide) and resazurin assays on solid tumour cell lines and leukemia cell lines, respectively, as previously reported (Wang S et al., J Med Chem 47:1662-1675, 2004 and Diab S. et al. CheMedChem 9:962-972, 2014). Compound concentrations required to inhibit 50% of cell growth (GI50) were calculated using non-linear regression analysis.

| remaining activity at 10 µM (CDK6/D3) [%] | remaining activity at 10 µM (CDKs and other kinases [1]) [%] | remaining activity at 10 µM (CDKs and other kinases [2]) [%] | remaining activity at 10 µM (CDKs and other kinases [3]) [%] | remaining activity at 10 µM (CDK4/D1) [%] | Ki (CDK9/T1) [µM] | residual activity at 10 µM (CDK4/D1) [%] | Ki (CDK6/D3) [µM] | Ki (CDKs and other kinases [1]) [µM] | Ki (CDKs and other kinases [2]) [µM] | Ki (CDKs and other kinases [3]) [µM] | Ki (CDK4/D1) [µM] | GI50 (leukemia cell lines) [µM] | Compound |
| --- | --- | --- | --- | --- | --- | --- | --- | --- | --- | --- | --- | --- | --- |
| 4 | 1 | 4 | 0 | 14 | 0.003 | – | – | – | – | – | – | – | N[C@H]1CC[C@H](Nc2ncc(F)c(-c3cnc4ccc(Nc5cncnc5)cn34)n2)CC1 [Compound 50, (1r,4r)-N^1-(5-Fluoro-4-(6-(pyrimidin-5-ylamino)imidazo [1,2-a]pyridin-3-yl)pyrimidin-2-yl)cyclohexane-1,4-diamine] |
| 24 | 32 | 31 | 12 | – | 0.024 | 125 | – | – | – | – | – | – | Cc1cnc(N[C@H]2CC[C@H](N)CC2)nc1-c1cnc2ccc(Nc3cncc(C(F)(F)F)c3)cn12 [Compound 65, (1r,4r)-N^1-(5-Methyl-4-(6-((5-(trifluoromethyl)pyridin-3-yl)amino)imidazo[1,2-a]pyridin-3-yl)pyrimidin-2-yl) cyclohexane-1,4-diamine] |
| 46 | 52 | 50 | 22 | 41 | 0.034 | – | – | – | – | – | – | – | Cc1cnc(N[C@H]2CC[C@H](N)CC2)nc1-c1cnc2ccc(Oc3cncnc3)cn12 [Compound 75, (1r,4r)-N^1-(5-Methyl-4-(6-(pyrimidin-5-yloxy)imidazo [1,2-a]pyridin-3-yl)pyrimidin-2-yl)cyclohexane-1,4-diamine] |
| 6 | 5 | 3 | 0 | 5 | 0.011 | – | – | – | – | – | – | – | N[C@H]1CC[C@H](Nc2ncc(Cl)c(-c3cnc4cc(-c5ccccc5)ccn34)n2)CC1 [Compound 77, (1r,4r)-N^1-(5-Chloro-4-(7-phenylimidazo[1,2-a]pyridin-3-yl)pyrimidin-2-yl)cyclohexane-1,4-diamine] |
| – | – | – | – | – | 0.002 | – | 0.034 | 0.16 | 1.26 | 0.019 | 0.06 | – | N[C@H]1CC[C@H](Nc2ncc(Cl)c(-c3cnc4ccc(Nc5cncnc5)cn34)n2)CC1 [Compound 88, (1r,4r)-N^1-(5-Chloro-4-(6-(pyrimidin-5-ylamino)imidazo [1,2-a]pyridin-3-yl)pyrimidin-2-yl)cyclohexane-1,4-diamine] |
| – | – | – | – | – | 0.008 | – | 0.21 | 1.26 | > 10 | 0.18 | 0.94 | – | CNC1CCC(Nc2ncc(C)c(-c3cnc4ccc(Nc5cncnc5)cn34)n2)CC1 (stereo not drawn) [Compound 109, N^1-Methyl-N^4-(5-Methyl-4-(6-(pyrimidin-5-ylamino)imidazo[1,2-a]pyridin-3-yl)pyrimidin-2-yl)cyclohexane-1,4-diamine] |
| 100 | 66 | 87 | 61 | 99 | > 5 | – | – | – | – | – | – | – | C[C@]12C[C@]3(C)C[C@](O)(C1)C[C@](Nc1ncc(F)c(-c4cnc5ccc(-c6ccccc6)cn45)n1)(C2)C3 [Compound 110, (1s,3r,5R,7S)-3-((5-Fluoro-4-(6-phenylimidazo[1,2-a]pyridin-3-yl)pyrimidin-2-yl)amino)-5,7-dimethyladamantan-1-ol] |

The remaining lines, values behind:

| Compound | remaining activity at 10 µM (CDK6/D3) [%] | remaining activity at 10 µM (CDKs and other kinases [1]) [%] | remaining activity at 10 µM (CDKs and other kinases [2]) [%] | remaining activity at 10 µM (CDKs and other kinases [3]) [%] | remaining activity at 10 µM (CDK4/D1) [%] | Ki (CDK9/T1) [µM] | residual activity at 10 µM (CDK4/D1) [%] | Ki (CDK6/D3) [µM] | Ki (CDKs and other kinases [1]) [µM] | Ki (CDKs and other kinases [2]) [µM] | Ki (CDKs and other kinases [3]) [µM] | Ki (CDK4/D1) [µM] | GI50 (leukemia cell lines) [µM] |
| --- | --- | --- | --- | --- | --- | --- | --- | --- | --- | --- | --- | --- | --- |
| N[C@H]1CC[C@H](Nc2ncc(F)c(-c3cnc4ccc(Nc5cccnc5)cn34)n2)CC1 [Compound 49, (1r,4r)-N^1-(5-Fluoro-4-(6-(pyridin-3-ylamino)imidazo [1,2-a]pyridin-3-yl)pyrimidin-2-yl)cyclohexane-1,4-diamine] | 5 | 1 | 3 | 0 | 0 | 0.003 | – | – | – | – | – | – | – |
| Cc1cnc(N[C@H]2CC[C@H](N)CC2)nc1-c1cnc2cc(Nc3cncnc3)ccn12 [Compound 56, (1r,4r)-N^1-(5-Methyl-4-(7-(pyrimidin-5-ylamino)imidazo [1,2-a]pyridin-3-yl)pyrimidin-2-yl)cyclohexane-1,4-diamine] | 5 | 39 | 22 | 12 | 0 | 0.051 | – | – | – | – | – | – | – |
| Cc1cnc(N[C@H]2CC[C@H](N)CC2)nc1-c1cnc2ccc(Nc3cncc(F)c3)cn12 [Compound 66, (1r,4r)-N^1-(4-(6-((5-Fluoropyridin-3-yl)amino)imidazo [1,2-a]pyridin-3-yl)-5-methylpyrimidin-2-yl)cyclohexane-1,4-diamine] | – | – | – | – | – | 0.007 | – | 0.33 | 1.26 | 3.25 | 0.18 | 0.76 | – |
| Cc1cnc(N[C@H]2CN3CCC2CC3)nc1-c1cnc2ccc(Nc3cncnc3)cn12 [Compound 76, (R)-N-(5-Methyl-4-(6-(pyrimidin-5-ylamino)imidazo [1,2-a]pyridin-3-yl)pyrimidin-2-yl)quinuclidin-3-amine] | 89 | 72 | 92 | 59 | 91 | 0.485 | – | – | – | – | – | – | – |
| N[C@H]1CC[C@H](Nc2ncc(Cl)c(-c3cnc4cc(-c5cccnc5)ccn34)n2)CC1 [Compound 78, (1r,4r)-N^1-(5-Chloro-4-(7-(pyridin-3-yl)imidazo[1,2-a]pyridin-3-yl)pyrimidin-2-yl)cyclohexane-1,4-diamine] | 3 | 7 | 3 | 0 | 10 | 0.019 | – | – | – | – | – | – | – |
| COC(=O)[C@H]1CC[C@H](Nc2ncc(C)c(-c3cnc4ccc(Nc5cncnc5)cn34)n2)CC1 [Compound 157, Methyl (1r,4r)-4-((5-methyl-4-(6-(pyrimidin-5-ylamino)imidazo[1,2-a]pyridin-3-yl)pyrimidin-2-yl)amino) cyclohexane-1-carboxylate] | – | 69 | 90 | 38 | 32 | 0.527 | – | – | – | – | – | – | 2.4 ± 0.09 |
| Cc1cnc(N[C@H]2CC[C@H](C(=O)O)CC2)nc1-c1cnc2ccc(Nc3cncnc3)cn12 [Compound 158, (1r,4r)-4-((5-Methyl-4-(6-(pyrimidin-5-ylamino)imidazo [1,2-a]pyridin-3-yl)pyrimidin-2-yl)amino)cyclohexane-1-carboxylic acid] | – | 94 | 98 | 85 | 92 | 0.185 | – | – | – | – | – | – | > 10 |
